Article PMC10544575, “Inhibitory mechanism of vortioxetine on CYP450 enzymes in human and rat liver microsomes” (Frontiers in Pharmacology, 2023)
Entries after “also recorded” stand apart in the source; their conditions may differ.

Key:
CYP3A4 = CYP3A4 (Homo sapiens, UniProt P08684); assay: Reversible inhibition kinetics (Lineweaver-Burk), CYP3A4 in HLMs; format: in vitro ADME; design: 0.20 mg/mL HLMs; from tissue; host or cells: human liver microsomes; conditions: midazolam
Experimental: (§1) The components of the incubation system were as follows: 0.20 mg/mL HLMs or 0.20 mg/mL RLMs, 0.1 M Tris-HCl, vortioxetine, and the probe substrates of each enzyme. In the study of Km’s (Michaelis–Menten constant) experiment, midazolam (1, 2, 5, 10, 20, 50 and 100 μM in HLMs and RLMs) corresponded to CYP3A4/3A; bupropion (10, 20, 50, 100, 200, 500, 1,000 and 2000 μM in HLMs; 1, 2, 5, 10, 20, 50, 100 and 200 μM in RLMs) corresponded to CYP2B6/2B; amodiaquine (5, 10, 20, 50, 100 and 200 μM in HLMs; 10, 20, 50, 100, 200, 500 μM in RLMs) corresponded to CYP2C8/CYP2C-1; losartan (1, 2, 5, 10, 20, 50, 100, 200 μM in HLMs; 10, 20, 50, 100, 200, 500 and 1,000 μM in RLMs) corresponded to CYP2C9/CYP2C-2; mephenytoin (20, 50, 100, 200, 500 and 1,000 μM in HLMs; 5, 10, 20, 50, 100, 200, 500 and 1,000 μM in RLMs) corresponded to CYP2C19/CYP2C-3; and dextromethorphan (1, 2, 5, 10, 20, 50 and 100 μM in HLMs and RLMs) corresponded to CYP2D6/CYP2D. After 5.0 min of preincubation in the shaking water bath, the reaction was started with the addition of 1.0 mM NADPH. The incubated temperature at 37°C for 30 min. After the incubation, the enzyme reaction was stopped by cooling at −80°C, and 200 μL of acetonitrile and 20 μL of internal standard diazepam (200 ng/mL) were added for protein precipitation. The solution was fully vortexed and centrifuged at 13,000 × rpm for 10 min, and the supernatant was collected for data analysis by UPLC-MS/MS.
(§2) The inhibitory mechanism of the inhibitor on the enzyme was generally used by different concentrations of the inhibitor against different concentrations of the probe substrate. The concentrations of the inhibitor and the concentrations of probe substrates in the experiment were estimated based on IC50 and Km values, respectively.
(§3) In HLMs, the concentrations of the substrates midazolam, bupropion, amodiaquine, losartan, mephenytoin, and dextromethorphan were 1, 2, 4, 8 μM; 10, 20, 40, 80 μM; 0.8, 1.5, 3, 6 μM; 2, 4, 8, 16 μM; 20, 45, 90, 180 μM; 2.5, 5, 10, 20 μM, respectively. Corresponding to the concentration of vortioxetine were 2, 4, 9, 18 μM; 2, 4, 8, 16 μM; 4, 8, 15, 30 μM; 5, 10, 25, 50 μM; 0.6, 1.2, 2.5, 5 μM; 4.5, 9, 18, 36 μM, respectively.
(§4) All experiments results were detected by UPLC-MS/MS, which equipped with a Waters Acquity UPLC system (Milford, MA, United States) and a Waters Xevo TQ-S triple quadrupole tandem mass spectrometer with an electrospray ionization source (Milford, MA, United States). The chromatographic separation was performed on a Waters ACQUITY UPLC BEH C18 column (2.1 × 50 mm, 1.7 μm, Waters Corp.) at 40°C. […]
(§5) IC50 values and enzyme kinetic parameters were calculated by Graphpad Prism 6.0 (GraphPad software Inc., CA, United States). […] Data for each experiment were expressed as mean ± SD (n = 3).

[1] = no reference given; cited from earlier work
CYP2D [2] = assay: Reversible inhibition kinetics (Lineweaver-Burk), CYP2D in RLMs; format: in vitro ADME, rat
Experimental: as §1, with “After 5.0 min of preincubation in the shaking water bath, the reaction was started with the addition of 1.0 mM NADPH. The incubated temperature at 37°C for 30 min. After the incubation, the enzyme reaction was stopped by cooling at −80°C, and 200 μL of acetonitrile and 20 μL of internal standard diazepam (200 ng/mL) were added for protein precipitation. The solution was fully vortexed and centrifuged at 13,000 × rpm for 10 min, and the supernatant was collected for data analysis by UPLC-MS/MS.” left out
(§6) All experiments results were detected by UPLC-MS/MS, which equipped with a Waters Acquity UPLC system (Milford, MA, United States) and a Waters Xevo TQ-S triple quadrupole tandem mass spectrometer with an electrospray ionization source (Milford, MA, United States). […]
as §5

CYP2C19 = CYP2C19 (Homo sapiens, UniProt P33261); assay: Reversible inhibition kinetics (Lineweaver-Burk), CYP2C19 in HLMs; format: in vitro ADME; design: 0.20 mg/mL HLMs; from tissue; host or cells: human liver microsomes; conditions: mephenytoin
Sequence of CYP2C19 (P33261 whole entry): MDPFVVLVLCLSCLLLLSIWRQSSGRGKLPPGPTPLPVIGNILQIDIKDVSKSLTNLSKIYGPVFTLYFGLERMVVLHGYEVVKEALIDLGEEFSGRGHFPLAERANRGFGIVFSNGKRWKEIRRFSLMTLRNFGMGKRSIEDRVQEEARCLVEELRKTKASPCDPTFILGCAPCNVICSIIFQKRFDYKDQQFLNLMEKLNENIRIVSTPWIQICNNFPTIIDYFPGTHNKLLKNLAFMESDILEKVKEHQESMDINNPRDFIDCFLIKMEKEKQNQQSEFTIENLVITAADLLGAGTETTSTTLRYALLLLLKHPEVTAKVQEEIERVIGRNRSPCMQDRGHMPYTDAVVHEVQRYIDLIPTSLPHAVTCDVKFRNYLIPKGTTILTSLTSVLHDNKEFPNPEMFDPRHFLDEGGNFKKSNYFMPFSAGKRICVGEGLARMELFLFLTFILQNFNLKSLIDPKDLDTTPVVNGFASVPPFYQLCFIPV
Experimental: as §1, with “After 5.0 min of preincubation in the shaking water bath, the reaction was started with the addition of 1.0 mM NADPH. The incubated temperature at 37°C for 30 min. After the incubation, the enzyme reaction was stopped by cooling at −80°C, and 200 μL of acetonitrile and 20 μL of internal standard diazepam (200 ng/mL) were added for protein precipitation. The solution was fully vortexed and centrifuged at 13,000 × rpm for 10 min, and the supernatant was collected for data analysis by UPLC-MS/MS.” left out
as §6, §5

CYP2C9 = CYP2C9 (Homo sapiens, UniProt P11712); assay: Reversible inhibition kinetics (Lineweaver-Burk), CYP2C9 in HLMs; format: in vitro ADME; design: 0.20 mg/mL HLMs; from tissue; host or cells: human liver microsomes; conditions: losartan
Sequence of CYP2C9 (P11712 whole entry): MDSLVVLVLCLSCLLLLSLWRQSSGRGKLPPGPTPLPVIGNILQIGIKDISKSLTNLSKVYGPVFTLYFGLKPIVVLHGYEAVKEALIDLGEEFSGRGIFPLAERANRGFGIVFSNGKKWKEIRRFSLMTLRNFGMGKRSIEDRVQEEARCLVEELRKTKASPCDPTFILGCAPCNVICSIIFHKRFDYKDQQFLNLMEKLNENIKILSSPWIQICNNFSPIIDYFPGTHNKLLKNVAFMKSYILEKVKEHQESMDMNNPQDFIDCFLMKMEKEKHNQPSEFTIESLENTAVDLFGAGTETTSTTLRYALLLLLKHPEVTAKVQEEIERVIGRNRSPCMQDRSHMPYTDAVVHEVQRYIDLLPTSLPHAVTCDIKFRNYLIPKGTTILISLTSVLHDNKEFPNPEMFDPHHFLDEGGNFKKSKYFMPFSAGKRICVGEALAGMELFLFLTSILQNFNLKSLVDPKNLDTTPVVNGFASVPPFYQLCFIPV
Experimental: as §1, §2, §3, §4, §5

CYP2D [3] = assay: IC50-shift experiment, CYP2D in RLMs; format: in vitro ADME; conditions: rat, rat liver microsomes, probe dextromethorphan; for IC50 at 30 min: dextromethorphan 20 μM
Experimental: as §1, with “The solution was fully vortexed and centrifuged at 13,000 × rpm for 10 min, and the supernatant was collected for data analysis by UPLC-MS/MS.” left out
IC50-shift was used to investigate whether the drug produced time-dependent inhibition (TDI) of the enzyme. […] During the experiment, the individual substrates midazolam (4 μM), bupropion (40 μM), amodiaquine (3 μM), losartan (8 μM), mephenytoin (90 μM), and dextromethorphan (10 μM) were determined with vortioxetine IC50-shift in HLMs. […]
as §6, §5

Sequence of CYP3A4 (P08684 whole entry): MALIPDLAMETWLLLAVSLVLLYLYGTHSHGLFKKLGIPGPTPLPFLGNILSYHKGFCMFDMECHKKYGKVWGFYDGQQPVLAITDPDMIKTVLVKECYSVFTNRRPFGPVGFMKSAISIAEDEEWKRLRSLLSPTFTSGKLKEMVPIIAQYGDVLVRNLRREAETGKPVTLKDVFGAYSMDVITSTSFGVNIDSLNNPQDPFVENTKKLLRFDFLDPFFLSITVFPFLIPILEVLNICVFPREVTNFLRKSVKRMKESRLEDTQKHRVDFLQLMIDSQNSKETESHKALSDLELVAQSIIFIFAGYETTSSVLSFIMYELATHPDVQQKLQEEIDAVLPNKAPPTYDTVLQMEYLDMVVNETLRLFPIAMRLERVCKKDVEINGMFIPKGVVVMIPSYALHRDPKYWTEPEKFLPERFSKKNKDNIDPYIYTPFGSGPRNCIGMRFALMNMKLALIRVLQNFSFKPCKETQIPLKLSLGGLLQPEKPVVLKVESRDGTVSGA

Ki (CYP3A4): 7.26 µM | α (CYP3A4): 0.94 | Inhibition type (CYP3A4; Lineweaver-Burk plot): noncompetitive inhibition | αKi (CYP3A4; secondary plot of y-intercepts): 6.82 µM | Inhibition type (CYP2D [2]; dextromethorphan, Lineweaver-Burk plot): uncompetitive inhibition | Ki at 30 min (CYP2D [2]; rat, rat liver microsomes, probe dextromethorphan): 101 µM | Ki (CYP2C19): 2.17 µM | Ki (CYP2C9): 4.17 µM | α (CYP2C9): 15.94 | Inhibition type (CYP2C9; Lineweaver-Burk plot): mixed inhibition | αKi (CYP2C9; secondary plot of y-intercepts): 66.5 µM | IC50 at 30 min (CYP2D [3]; 30 min preincubation with 1.0 mM NADPH): 7.38 µM | IC50 at 30 min (CYP2D [3]; 30 min preincubation without NADPH): 3.35 µM
SMILES: Cc1ccc(Sc2ccccc2N2CCNCC2)c(C)c1 [vortioxetine]
plasma protein (binding) [1]: 99% | Inhibition type (CYP2C19; Lineweaver-Burk plot): competitively inhibited; also recorded: competitive inhibition | IC50 shift at 30 min (CYP2D [3]; ratio IC50 (−) NADPH to IC50 (+) NADPH, read-out: IC50 fold shift): 0.45
